Experimental data as given in US6862890B2, “Process for production of nanoparticles and microparticles by spray freezing into liquid” (Board of Regents, University of Texas System, priority 2001, dated 2005).
Values belong to the molecule of their own block, whether it stands above or below them.

Assays:
Type in all cases: physicochemical
[1] = Particle size of powders (time-of-flight, AERO-[…])
Description: (§1) An aliquot of 0.1 g bovine insulin was dissolved in 20 ml HCl (pH=2), the solution was then titrated by 0.1 N NaOH to pH 7.4. The feed solution was then atomized using an ISCO pump by spray freezing into liquid nitrogen. The nozzle used was polyetheretherketone tubing with a diameter of 63.5 μm. The flow rate was 14 ml/min at 4000 psi. The frozen particles were collected and dried in a tray lyophilizer.
The span index is used to described the polydispersity in a given particle size distribution and is defined as (D90-D10)/D50, where D10, D50, and D90 are the respective particle size at 10, 50, 90 percent cumulative percent undersize.

[2] = Dissolution of drug from powders in dissolution media (FeSSIF); conditions: 60 minutes
From the text: This media is used to simulate gastrointestinal conditions. FeSSIF is the dissolution media that the powders produced in the following examples are dispersed into to quantitate the amount of drug dissolved as a function of time.

[3] = BET specific surface area of powders
[4] = Contact angle of powder compacts against purified water (wettability); conditions: compacts of powders
From the text: The two solutions were mixed and allowed to equilibrate to generate a water-soluble inclusion complex between danazol and HPβCD. The solution was then processed by SFL and freeze-dried in a tray lyophilizer. The solution was atomized directly into liquid nitrogen through an insulated polyetheretherketone (PEEK) nozzle with a 63.5 μm orifice at 5000 psi constant pressure supplied by an ISCO syringe pump. The atomized frozen powder was then collected by sieve filtration and freeze-dried. […] Measurement of the contact angle of compacts of the various samples investigated allowed for the determination of the wettability of the powders. […] A lower contact angle coincided with enhanced wettability of the powder in aqueous dissolution media. […] The two solutions were mixed to form a one-phase cosolvent solution. The solution was then processed by SFL and freeze-dried and fluidized in an atmospheric freeze-drying (ATMFD) chamber. […] The atomized frozen powder was then collected by sieve filtration and freeze-dried using a cryogenic atmospheric (ATMFD) fluidized bed apparatus. […] The microparticles are porous and have a high surface area. […] Measurement of the contact angle of compacts of the various samples investigated allowed for the determination of the wettability of the powders. […] A lower contact angle coincided with a better wettability of the powder in aqueous dissolution media. […]

[5] = Chemical stability of insulin: level of covalent insulin dimer; conditions: for percentage of covalent insulin dimer: stored at −4° C.
Description: as §1, with “lyophilizer. The resulting particles were highly porous. […] The SFL process decreased the level of covalent insulin dimer (Table 2). The mean particle size diameter as determined by time-of-flight measurement was 5.06 microns. SEM photographs reveal that the particle is an aggregate composed of small domains of insulin.” for “lyophilizer.”
(§2) The SFL insulin powder was prepared according to the procedure outlined in Example 1 with same formulation. The SFL insulin powder was stored at −4° C. The samples were taken out at 6, 12 and 24 weeks.

[6] = Chemical stability of insulin: level of A-21 desamido insulin; conditions: stored at −4° C.
Description: as §1, with “lyophilizer. The resulting particles were highly porous. […] The SFL process decreased the level of covalent insulin dimer (Table 2). The mean particle size diameter as determined by time-of-flight measurement was 5.06 microns. SEM photographs reveal that the particle is an aggregate composed of small domains of insulin.” for “lyophilizer.”
as §2

- Span Index (D90-D10)/D50 [1]: 2.94
- D10 ([1]; time-of-flight, 10 percent cumulative undersize): 15.56 μm
- D50 ([1]; time-of-flight, 50 percent cumulative undersize): 39.70 μm
- D90 ([1]; time-of-flight, 90 percent cumulative undersize): 132.33 μm
Molecule: NC(=O)N1c2ccccc2C=Cc2ccccc21 [CBZ, carbamazepine]

- amount of danazol dissolved [2]: 21%
- BET surface area [3]: 0.52 m^2/g
Molecule: C#C[C@]1(O)CC[C@H]2[C@@H]3CCC4=Cc5oncc5C[C@]4(C)[C@H]3CC[C@@]21C [Danazol]

- Average Contact Angle ± S.D. against purified water [4]: 64.3 ± 1.1 °
- Average Contact Angle ± S.D. against purified water ([4]; listed as danazol alone): 64.3 °
Molecule: C#C[C@]1(O)CC[C@H]2[C@@H]3CCC4=Cc5oncc5C[C@]4(C)[C@H]3CC[C@@]21C [SFL Danazol Alone, danazol]

Molecule: bovine insulin [Bulk insulin]
- percentage of covalent insulin dimer ([5]; 12 weeks): 1.18 percentage
- percentage of covalent insulin dimer ([5]; 24 weeks): 1.15 percentage
- Covalent Insulin Dimer (percent) ([5]; Example 1, after SFL and lyophilization vs bulk): 0.25%
- percentage of covalent insulin dimer ([5]; Initial): 0.5 percentage
- percentage of A-21 desamido ([6]; 12 weeks): 2.61 percentage
- percentage of A-21 desamido ([6]; 24 weeks): 2.72 percentage
- percentage of A-21 desamido ([6]; Initial): 2.46 percentage
- Mean Particle Size ([1]; time-of-flight): 14.24 μm
